Tested on: Hartley albino guinea pigs
Assay: Guinea pig maximization test (Magnusson and Kligman method), delayed contact hypersensitivity
Format: in vivo
Conditions: primary challenge
Method: The potential of EAP-1 to produce delayed contact hypersensitivity in guinea pigs was evaluated by the Magnusson and Kligman Maximization Test Method.
On day zero, twenty Hartley albino guinea pigs plus ten positive control animals, and ten vehicle control animals each received six intradermal injections, i.e. duplicate injections (0.1 ml;injection) for each of the three test groups: test material (undiluted), formaldehyde (5.0% w/v in distilled water) and acetone, respectively. Each animal also received two intradermal injections of 50% v/v Freund's Complete Adjuvant (FCA) in distilled water and two injections of the respective test or control materials in the FCA/distilled water emulsion.
On day 6, these same groups of animals were exposed topically to a preparation of their respective test (50% w/v in acetone) or control material under ELASTOPLAST@ (a product of Beiersdorf, Inc.) bandage wrappings for approximately 48 hours.
On day 19, all animals were topically challenged at a naive (not previously exposed) skin site using a preparation of their respective test or control material under ELASTOPLAST@ bandage wrappings for approximately 24 hours. Naive control animals were patched identically to and concurrently with the test and positive.
On the day after removal, the sites were depilated. Later that day and again on the next day, the sites were graded for erythema (redness). […]

Question: Which results are given for `C=O` [positive control, formaldehyde]?
Answer: sensitization classification (positive control group): extreme sensitization; incidence of grade 1 responses or greater (positive control group (10/10)): 100%

— patent EP0396405A2, “Cosmetic formulations employing esterified alkoxylated polyol carriers” (ARCO CHEMICAL TECHNOLOGY INC., priority 1989, dated 1990)
